Laboratory results taken from ChEMBL document CHEMBL1201862, “PubChem BioAssay data set” (2004).
Calls of active or inactive are those of the source.

Assays:
Vero = assay: viability of Vero cells under compound – cytotoxicity control for flavivirus capping enzyme inhibitors (AID 588742); assay type: functional; conditions: Chlorocebus sabaeus
Genome polyprotein = Genome polyprotein (dengue virus type 2, UniProt P29990); assay: flavivirus cap methylation enzyme inhibition – biochemical, confirmation dose response, primary screen (AID 588689); assay type: functional
Chain of Genome polyprotein (P29990 2492-3391 limits assumed): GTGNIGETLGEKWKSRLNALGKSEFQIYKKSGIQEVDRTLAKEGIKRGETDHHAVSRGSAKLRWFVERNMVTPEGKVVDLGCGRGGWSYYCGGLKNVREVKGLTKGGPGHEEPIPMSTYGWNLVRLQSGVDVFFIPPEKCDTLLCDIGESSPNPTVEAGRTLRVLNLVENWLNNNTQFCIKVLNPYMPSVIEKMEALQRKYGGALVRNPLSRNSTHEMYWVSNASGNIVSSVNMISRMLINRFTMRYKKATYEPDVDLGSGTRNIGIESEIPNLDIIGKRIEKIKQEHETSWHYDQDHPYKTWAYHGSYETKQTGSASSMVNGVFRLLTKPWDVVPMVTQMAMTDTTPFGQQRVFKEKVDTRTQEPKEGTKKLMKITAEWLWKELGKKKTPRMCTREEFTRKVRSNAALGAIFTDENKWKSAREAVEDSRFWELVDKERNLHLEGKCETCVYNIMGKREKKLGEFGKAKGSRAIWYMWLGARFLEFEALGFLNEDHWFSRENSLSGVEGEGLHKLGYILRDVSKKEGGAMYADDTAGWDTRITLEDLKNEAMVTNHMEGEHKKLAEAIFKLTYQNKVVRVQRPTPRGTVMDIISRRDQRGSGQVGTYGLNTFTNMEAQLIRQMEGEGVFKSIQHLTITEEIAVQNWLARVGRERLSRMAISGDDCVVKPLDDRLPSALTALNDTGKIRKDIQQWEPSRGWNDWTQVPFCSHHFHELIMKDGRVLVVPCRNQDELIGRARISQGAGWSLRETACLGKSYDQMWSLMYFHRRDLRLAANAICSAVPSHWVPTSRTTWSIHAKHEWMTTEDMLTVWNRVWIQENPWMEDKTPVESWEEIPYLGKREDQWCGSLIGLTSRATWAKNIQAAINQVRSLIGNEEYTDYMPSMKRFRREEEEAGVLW

[1] = biological target: T1, Long-chain-fatty-acid--AMP ligase FadD28 (Mycobacterium tuberculosis, UniProt P9WQ59); assay: Fluorescence polarization aasay to screen for inhibitors that compete for the binding of FadD28 to a bisubstrate Measured in Biochemical System Using Plate Reader - 2147-01_Inhibitor_Dose_CherryPick_Activity.; assay type: functional, Mycobacterium tuberculosis H37Rv
T1 sequence (P9WQ59 whole entry): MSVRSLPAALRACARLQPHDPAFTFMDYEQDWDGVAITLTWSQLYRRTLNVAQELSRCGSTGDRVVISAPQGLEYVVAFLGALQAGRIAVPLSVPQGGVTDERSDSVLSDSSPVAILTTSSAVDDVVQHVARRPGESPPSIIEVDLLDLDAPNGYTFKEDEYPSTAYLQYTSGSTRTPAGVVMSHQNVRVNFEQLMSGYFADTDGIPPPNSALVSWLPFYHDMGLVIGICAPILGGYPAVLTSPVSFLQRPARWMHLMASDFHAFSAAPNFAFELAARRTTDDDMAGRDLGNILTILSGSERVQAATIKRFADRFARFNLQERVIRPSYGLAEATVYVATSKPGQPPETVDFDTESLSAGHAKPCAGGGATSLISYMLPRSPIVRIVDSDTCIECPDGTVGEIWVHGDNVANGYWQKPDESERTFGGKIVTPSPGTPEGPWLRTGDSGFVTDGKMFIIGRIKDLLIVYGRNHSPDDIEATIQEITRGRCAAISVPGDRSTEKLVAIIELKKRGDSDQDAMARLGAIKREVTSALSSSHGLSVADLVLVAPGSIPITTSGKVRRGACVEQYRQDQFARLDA

BJ [2] = assay: BJ-TERT fibroblast viability loss – cell-based, RAS-independent, luminescence, dose response (AID 1933); assay type: functional; conditions: Homo sapiens
BJ [3] = assay: cells; assay type: functional, cell-based; conditions: Homo sapiens, read-out: EC50
BJ [4] = assay: BJ-TERT-LT-ST fibroblast viability loss – cell-based, RAS-independent, luminescence, dose response (AID 1935); assay type: functional; conditions: Homo sapiens;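 note: BJ fibroblasts immortalized with TERT plus LT and ST oncogenes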
[5] = DRD fibroblast viability loss – cell-based, non-viral oncogenic, luminescence, dose response (AID 1934); assay type: functional; conditions: Homo sapiens
BJ [6] = assay: growth inhibition of engineered Ras-driven BJ cells – cell-based, alamar blue fluorescence, cherrypicked samples, dose response (AID 2631); assay type: functional; conditions: Homo sapiens;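 note: confirmatory dose-response assay in RAS-dependent BJ fibroblasts engineered with TERT, LT and ST, with cytotoxicity read by fluorescence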
Beta-galactosidase = Beta-galactosidase (Escherichia coli, UniProt Q8VNN2); assay: PubChem AID 485352; assay type: functional
Chain of Beta-galactosidase (Q8VNN2 whole entry): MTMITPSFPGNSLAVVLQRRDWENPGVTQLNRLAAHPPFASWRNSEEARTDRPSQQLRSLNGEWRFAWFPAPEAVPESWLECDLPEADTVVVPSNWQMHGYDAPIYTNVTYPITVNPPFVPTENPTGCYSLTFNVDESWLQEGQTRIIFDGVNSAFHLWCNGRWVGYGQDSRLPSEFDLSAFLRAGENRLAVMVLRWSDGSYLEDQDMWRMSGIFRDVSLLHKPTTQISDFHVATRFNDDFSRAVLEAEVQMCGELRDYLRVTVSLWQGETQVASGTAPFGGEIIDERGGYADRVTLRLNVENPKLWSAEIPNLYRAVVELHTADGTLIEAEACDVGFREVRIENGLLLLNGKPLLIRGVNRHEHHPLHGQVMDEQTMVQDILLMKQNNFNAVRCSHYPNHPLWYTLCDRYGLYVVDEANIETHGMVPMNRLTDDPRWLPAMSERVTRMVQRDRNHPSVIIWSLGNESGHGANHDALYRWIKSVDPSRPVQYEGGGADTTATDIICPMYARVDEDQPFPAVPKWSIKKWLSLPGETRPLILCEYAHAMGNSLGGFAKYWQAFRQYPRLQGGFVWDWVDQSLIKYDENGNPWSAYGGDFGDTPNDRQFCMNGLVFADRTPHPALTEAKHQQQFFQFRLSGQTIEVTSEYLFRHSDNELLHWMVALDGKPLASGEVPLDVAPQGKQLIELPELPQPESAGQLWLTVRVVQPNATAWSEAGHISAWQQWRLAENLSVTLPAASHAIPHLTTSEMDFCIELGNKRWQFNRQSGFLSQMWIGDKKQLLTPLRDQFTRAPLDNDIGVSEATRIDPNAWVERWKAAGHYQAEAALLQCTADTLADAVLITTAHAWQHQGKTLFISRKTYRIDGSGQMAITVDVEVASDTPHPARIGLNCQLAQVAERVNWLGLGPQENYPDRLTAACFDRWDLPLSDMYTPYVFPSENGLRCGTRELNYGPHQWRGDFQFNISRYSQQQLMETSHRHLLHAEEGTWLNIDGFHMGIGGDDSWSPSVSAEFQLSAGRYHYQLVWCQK

[7] = biological target: T2, Type-1 angiotensin II receptor (Homo sapiens, UniProt P30556); assay: antagonism of angiotensin II type 1 receptor – cell-based, uHTS hits, selectivity assay for APJ receptor antagonist project, dose response (AID 463214); assay type: functional;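 note: antagonist potency against angiotensin II stimulated AT1 response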
T2 sequence (P30556 whole entry): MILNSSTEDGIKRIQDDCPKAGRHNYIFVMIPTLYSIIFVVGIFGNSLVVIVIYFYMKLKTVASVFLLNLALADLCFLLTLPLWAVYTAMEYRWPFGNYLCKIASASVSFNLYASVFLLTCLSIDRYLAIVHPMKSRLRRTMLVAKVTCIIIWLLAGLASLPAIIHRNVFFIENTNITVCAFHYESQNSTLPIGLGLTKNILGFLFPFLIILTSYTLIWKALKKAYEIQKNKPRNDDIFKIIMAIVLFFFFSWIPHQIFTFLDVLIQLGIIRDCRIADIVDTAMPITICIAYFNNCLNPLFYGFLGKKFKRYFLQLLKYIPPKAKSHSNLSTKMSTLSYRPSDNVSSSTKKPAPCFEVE

Protein skinhead-1 = biological target: T3, Protein skinhead-1 (Caenorhabditis elegans, UniProt P34707); assay type: functional
T3 sequence (P34707 whole entry): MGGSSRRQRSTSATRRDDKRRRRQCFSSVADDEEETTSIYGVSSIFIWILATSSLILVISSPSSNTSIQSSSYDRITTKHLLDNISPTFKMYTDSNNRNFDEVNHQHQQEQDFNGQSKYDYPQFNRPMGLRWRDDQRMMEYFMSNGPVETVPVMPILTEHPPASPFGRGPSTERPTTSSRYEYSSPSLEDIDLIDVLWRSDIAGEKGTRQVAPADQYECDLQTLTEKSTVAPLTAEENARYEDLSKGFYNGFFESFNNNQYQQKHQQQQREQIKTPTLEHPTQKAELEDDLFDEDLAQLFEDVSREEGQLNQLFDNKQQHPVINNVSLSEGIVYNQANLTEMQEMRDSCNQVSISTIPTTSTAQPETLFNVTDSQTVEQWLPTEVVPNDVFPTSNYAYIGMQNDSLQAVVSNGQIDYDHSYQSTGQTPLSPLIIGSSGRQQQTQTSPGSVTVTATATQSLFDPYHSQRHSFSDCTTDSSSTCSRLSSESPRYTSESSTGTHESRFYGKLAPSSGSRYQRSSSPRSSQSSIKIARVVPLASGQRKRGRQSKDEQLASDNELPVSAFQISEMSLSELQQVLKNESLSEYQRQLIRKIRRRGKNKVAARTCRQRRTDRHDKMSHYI

[8] = biological target: T4, Sentrin-specific protease 8 (Homo sapiens, UniProt Q96LD8); assay: inhibition of human SENP8 cleavage activity – biochemical, luminescence, SAR follow-up (AID 504501); assay type: functional
T4 sequence (Q96LD8 whole entry): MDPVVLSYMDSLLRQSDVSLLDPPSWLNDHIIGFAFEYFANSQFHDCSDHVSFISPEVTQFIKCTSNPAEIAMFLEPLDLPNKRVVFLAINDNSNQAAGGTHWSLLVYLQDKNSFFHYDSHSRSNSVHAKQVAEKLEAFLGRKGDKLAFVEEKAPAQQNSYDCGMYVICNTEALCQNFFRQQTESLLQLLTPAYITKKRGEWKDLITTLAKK

[9] = biological target: T4, Sentrin-specific protease 8; assay: inhibition of sentrin protease 8 – biochemical, luminescence, set 2, SAR follow-up (AID 588601); assay type: functional
Caspase-3 = biological target: T5, Caspase-3 (Homo sapiens, UniProt P42574); assay: SAR Analysis of small molecule inhibitors of Sentrin-specific proteases (SENPs) using a Caspase-3 Selectivity assay. [Related pubchem assays (depositor defined):AID2540, AID2599, AID434973, AID489001]; assay type: functional
T5 sequence (P42574 whole entry): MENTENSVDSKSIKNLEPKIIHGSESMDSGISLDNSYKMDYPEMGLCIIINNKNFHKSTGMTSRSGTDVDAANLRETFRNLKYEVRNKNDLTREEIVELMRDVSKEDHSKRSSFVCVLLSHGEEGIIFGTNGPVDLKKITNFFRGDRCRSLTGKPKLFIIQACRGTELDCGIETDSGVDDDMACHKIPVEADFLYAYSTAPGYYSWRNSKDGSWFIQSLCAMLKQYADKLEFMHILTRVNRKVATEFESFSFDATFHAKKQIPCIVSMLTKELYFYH

[10] = biological target: T6, Sentrin-specific protease 7 (Homo sapiens, UniProt Q9BQF6); assay: inhibition of human SENP7 cleavage activity – biochemical, luminescence, set 2, SAR follow-up (AID 588600); assay type: functional
T6 sequence (Q9BQF6 whole entry): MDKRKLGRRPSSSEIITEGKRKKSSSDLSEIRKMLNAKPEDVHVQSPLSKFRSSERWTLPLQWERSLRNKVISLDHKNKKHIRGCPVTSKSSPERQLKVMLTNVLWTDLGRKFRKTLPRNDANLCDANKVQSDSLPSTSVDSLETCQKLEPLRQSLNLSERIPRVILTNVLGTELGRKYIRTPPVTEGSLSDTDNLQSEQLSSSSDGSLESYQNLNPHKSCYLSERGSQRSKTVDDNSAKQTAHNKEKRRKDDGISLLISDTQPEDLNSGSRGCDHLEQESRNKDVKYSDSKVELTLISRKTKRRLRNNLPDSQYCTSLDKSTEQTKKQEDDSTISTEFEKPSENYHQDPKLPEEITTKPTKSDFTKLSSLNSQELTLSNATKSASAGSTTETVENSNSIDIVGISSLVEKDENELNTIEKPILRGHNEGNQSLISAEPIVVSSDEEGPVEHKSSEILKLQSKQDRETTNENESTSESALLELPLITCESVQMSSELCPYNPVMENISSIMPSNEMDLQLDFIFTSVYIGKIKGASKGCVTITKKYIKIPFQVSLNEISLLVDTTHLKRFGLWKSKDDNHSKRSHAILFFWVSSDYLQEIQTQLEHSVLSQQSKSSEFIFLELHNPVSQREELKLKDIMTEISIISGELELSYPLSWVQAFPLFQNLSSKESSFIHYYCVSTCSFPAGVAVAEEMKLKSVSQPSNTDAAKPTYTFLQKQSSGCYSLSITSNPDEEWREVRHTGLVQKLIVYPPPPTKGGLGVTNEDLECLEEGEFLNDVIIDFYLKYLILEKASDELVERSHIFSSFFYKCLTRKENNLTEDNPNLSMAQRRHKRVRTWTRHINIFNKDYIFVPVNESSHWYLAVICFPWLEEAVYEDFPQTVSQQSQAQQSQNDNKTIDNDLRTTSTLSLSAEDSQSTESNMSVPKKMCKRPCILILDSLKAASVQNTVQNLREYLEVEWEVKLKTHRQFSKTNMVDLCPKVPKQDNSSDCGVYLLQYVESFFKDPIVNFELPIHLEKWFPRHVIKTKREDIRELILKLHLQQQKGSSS

[11] = biological target: T7, Sentrin-specific protease 6 (Homo sapiens, UniProt Q9GZR1); assay: SAR Analysis of small molecule inhibitors of Sentrin-specific protease 6 (SENP6) using a Luminescent assay. [Related pubchem assays (depositor defined):AID2582, AID2599]; assay type: functional
T7 sequence (Q9GZR1 whole entry): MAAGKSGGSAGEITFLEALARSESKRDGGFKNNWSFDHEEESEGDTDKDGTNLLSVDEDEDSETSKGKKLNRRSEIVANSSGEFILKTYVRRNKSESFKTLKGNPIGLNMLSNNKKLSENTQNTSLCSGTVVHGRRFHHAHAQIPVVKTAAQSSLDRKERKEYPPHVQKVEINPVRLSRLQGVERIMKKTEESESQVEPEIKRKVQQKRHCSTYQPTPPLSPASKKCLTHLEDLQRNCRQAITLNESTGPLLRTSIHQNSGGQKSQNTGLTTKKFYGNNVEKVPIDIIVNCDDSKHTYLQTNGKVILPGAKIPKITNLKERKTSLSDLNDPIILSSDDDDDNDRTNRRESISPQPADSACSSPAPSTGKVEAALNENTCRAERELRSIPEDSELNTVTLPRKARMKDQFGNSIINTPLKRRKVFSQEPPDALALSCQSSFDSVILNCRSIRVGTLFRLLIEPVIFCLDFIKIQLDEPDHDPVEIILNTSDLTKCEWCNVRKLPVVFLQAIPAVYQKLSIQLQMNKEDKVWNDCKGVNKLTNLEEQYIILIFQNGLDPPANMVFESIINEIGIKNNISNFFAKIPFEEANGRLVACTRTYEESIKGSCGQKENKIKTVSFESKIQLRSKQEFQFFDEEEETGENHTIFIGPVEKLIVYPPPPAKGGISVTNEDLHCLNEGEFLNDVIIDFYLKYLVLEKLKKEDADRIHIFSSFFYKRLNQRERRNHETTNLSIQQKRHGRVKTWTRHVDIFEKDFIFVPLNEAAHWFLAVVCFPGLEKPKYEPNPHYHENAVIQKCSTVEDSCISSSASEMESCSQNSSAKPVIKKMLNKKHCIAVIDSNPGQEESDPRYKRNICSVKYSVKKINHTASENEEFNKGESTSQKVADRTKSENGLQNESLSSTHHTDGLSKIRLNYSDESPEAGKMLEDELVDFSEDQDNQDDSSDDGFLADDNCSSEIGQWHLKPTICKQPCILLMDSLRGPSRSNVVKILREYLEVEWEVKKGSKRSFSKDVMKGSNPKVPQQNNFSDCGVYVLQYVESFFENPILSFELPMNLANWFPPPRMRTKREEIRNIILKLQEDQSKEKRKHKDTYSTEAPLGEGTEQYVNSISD

[12] = biological target: T7, Sentrin-specific protease 6; assay: inhibition of human SENP6 catalytic domain – biochemical, luminescence, set 2, SAR follow-up (AID 588598); assay type: functional
[13] = biological target: T6, Sentrin-specific protease 7; assay: inhibition of human SENP7 cleavage activity – biochemical, luminescence, SAR follow-up (AID 504497); assay type: functional
[14] = HEK-293T cell viability reduction – luminescence, B-cell screen hits, cytotoxicity control for BCR NF-kB inhibitor project, dose response (AID 489021); assay type: functional, cell-based;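 note: HEK-293T cells carrying an NF-kB luciferase reporter; cells exposed to compound for about 14 hours before viability readout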
[15] = biological target: Luciferin 4-monooxygenase (Photinus pyralis, UniProt P08659); assay: inhibition of purified Photinus pyralis luciferase – biochemical, dry powder samples, plate reader, dose response (AID 588451)
Chain of Luciferin 4-monooxygenase (P08659 whole entry): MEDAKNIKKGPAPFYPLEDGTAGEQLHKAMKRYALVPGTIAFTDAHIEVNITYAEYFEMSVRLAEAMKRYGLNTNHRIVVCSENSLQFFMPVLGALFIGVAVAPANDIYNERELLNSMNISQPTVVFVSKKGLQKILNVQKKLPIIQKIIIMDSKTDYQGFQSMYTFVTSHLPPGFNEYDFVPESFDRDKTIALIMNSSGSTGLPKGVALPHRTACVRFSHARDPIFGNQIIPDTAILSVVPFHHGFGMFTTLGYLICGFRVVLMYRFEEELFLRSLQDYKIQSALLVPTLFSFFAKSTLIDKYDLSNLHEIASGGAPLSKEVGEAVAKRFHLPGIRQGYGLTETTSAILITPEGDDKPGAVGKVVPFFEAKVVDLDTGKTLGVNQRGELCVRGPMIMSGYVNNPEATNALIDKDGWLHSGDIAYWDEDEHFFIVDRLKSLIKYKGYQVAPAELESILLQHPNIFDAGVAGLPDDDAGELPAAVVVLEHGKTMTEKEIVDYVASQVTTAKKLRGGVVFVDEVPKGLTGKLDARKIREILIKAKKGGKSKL

H4 [16] = assay: inhibitors of control reporter signal in H4 cells – cell-based, plate reader, dry powder samples, counter-screen for prion reporter project, dose response (AID 540255); assay type: functional; conditions: Homo sapiens
H4 [17] = assay: Amyloid Precursor 5' UTR neuroblastoma cell reporter line Measured in Cell-Based System Using Plate Reader - 2078-04_Inhibitor_Dose_DryPowder_Activity. [Related pubchem assays (depositor defined):AID488894]; assay type: functional; conditions: Homo sapiens
H4 [18] = assay: Inhibitors of Prion Protein 5' UTR mRNA Measured in Cell-Based System Using Plate Reader - 2078-01_Inhibitor_Dose_DryPowder_Activity. [Related pubchem assays (depositor defined):AID488894]; assay type: functional; conditions: Homo sapiens

## O=C(Nc1sc2c(c1C(=O)O)CCCC2)c1cccc(Cl)c1
Vero
  CC50: > 40 µM (active)
Genome polyprotein
  IC50: 71.8 µM (active)
[1]
  AC50: > 100 µM (inactive)

## Cc1ccc(/C=C2\SC(=S)N(CC3CCCO3)C2=O)o1 (stereo not drawn)
BJ [2]
  EC50: 35.8 µM (inconclusive)
BJ [3]
  EC50: > 150 µM (not active)
BJ [4]
  EC50: > 150 µM (not active)
[5]
  EC50: 16.4 µM (active)
BJ [6]
  EC50: > 133 µM (inactive)

## O=C(CNc1ccc(Br)cc1)c1ccccc1
Beta-galactosidase
  EC50: > 40 µM (inactive)
[7]
  IC50: 13.5 µM (active)
Protein skinhead-1
  IC50: > 100 µM (inactive)

## Fc1ccc(/C=C/c2noc(-c3ccccc3I)n2)cc1
[8]
  IC50: 23 µM (active)
[9]
  IC50: 7.41 µM (active)
Caspase-3
  IC50: 24 µM (active)
[10]
  IC50: 7.78 µM (active)
[11]
  IC50: 20 µM (active)
[12]
  IC50: 7.33 µM (active)
[13]
  IC50: 6.4 µM (active)

## Cc1ccc(NC(=O)O/N=C/c2c(C)nn(C(C)(C)C)c2C)cc1Cl
[14]
  IC50: > 80 µM (inactive)
[15]
  AC50: 14.8 µM (active)
H4 [16]
  AC50: 0.237 µM (active)
H4 [17]
  AC50: 0.125 µM (active)
H4 [18]
  AC50: 0.099 µM (active)
